Data reported in patent publication US20220264913A1, “MULTIFUNCTIONAL EXTRACTS OF SUGARCANE STRAW OR BAGASSE AND USES THEREOF” (UNIVERSIDADE CATÓLICA PORTUGUESA - UCP, priority 2019, published 2022).

Columns and labels:
Format in all cases: cell-based
Details in all cases: extracts 50% ethanol, ND = inhibition not detected
[1] = test system: E. coli; assay: MIC/MBC determination, E. coli
Description: (§1) The antimicrobial activity of the extracts was evaluated by measuring the minimum inhibitory concentration (MIC) and the minimum bactericidal concentration (MBC) of the extracts using the methods of the clinical and laboratory standards institute for aerobic (M07-A9) and anaerobic bacteria (M11-A8). From a previously filtered 3% stock solution a series of extract dilutions were prepared (2%, 1.5%, 1%, 0.75%, 0.5%, 0.25%, 0.125%, and 0.0625% (w/v)). A commonly used preservative, 2-phenoxyethanol was tested under the same conditions as a positive control.
(§2) MHB growth media was used for aerobic microorganisms and Wilkins Chalgren Broth (WCB) was used for anaerobic microorganisms. The microorganisms were inoculated at 2% (v/v) from an inoculum with 0.5 McFarland standard (ca. 10^8 CFU/mL) and then adjusted in order to obtain a final inoculum of 10^5 CFU/mL in the testing solutions. […] The OD of each well (experimental and control) was measured each hour at 660 nm. […] Afterwards, the concentrations for which no growth was detected were plated in MHA and Wilkins Chalgren Agar (WCA) accordingly, in order to verify the MBC. MBC and MIC were determined by the analysis of maximum absorbance registered, delay of the exponential phase entry, and the calculation of the specific growth rate. […]

[2] = test system: P. aeruginosa; assay: MIC/MBC determination, P. aeruginosa
Description: as §1, §2

[3] = test system: MSSA; assay: MIC/MBC determination, MSSA
Description: as §1, §2

[4] = test system: C. albicans; assay: MIC/MBC determination, C. albicans
Description: as §1, §2

Work on `OCCOc1ccccc1` [Phenoxyethanol, 2-phenoxyethanol] yielded an MBC [1] of 3%, an MBC [2] of 0.3% and an MBC [3] of 0.3%. It also gave an MBC [4] of 3%.
